Read-outs that look alike come from different tables or passages of the source.
Columns and labels:
[1] = Stability in mouse serum at 37 °C; format: in vitro ADME; settings: for remaining at 1 h / remaining at 4 h / remaining at 24 h: mouse, mouse serum, read-out: Stability in mouse serum, % intact
Procedure: (§1) For serum stability, mouse serum or human serum (0.5 mL, both purchased from Sigma-Aldrich) was combined with an aliquot of each of the peptides [^64Cu]1 and [^64Cu]2 (≤25 μL, 14.8–22.2 MBq) and incubated at 37 °C. At each time point (1, 4, and 24 h) an aliquot (50–200 μL) was taken, proteins precipitated with ethanol, and removed by pelleting at 1500 (RCF) for 4 min. The ethanol solution was diluted with water (1 mL) and analyzed by RP-HPLC as previously described.

[2] = test system: mouse serum protein; test: Mouse serum protein binding by ultrafiltration; format: in vitro ADME; settings: 37 °C
Procedure: Serum protein binding of [^64Cu]1 and [^64Cu]2 was assessed following the previously reported method. Peptides [^64Cu]1 and [^64Cu]2 were evaluated by ultrafiltration using Centrifree Ultrafiltration devices (EMD) according to the manufacturer’s recommendations. Experiments were carried out in triplicate. The Centrifree Ultrafiltration devices were pretreated with PBS containing Tween 20 (5% v/v), followed by triplicate rinses with PBS. An aliquot of each peptide [^64Cu]1 or [^64Cu]2 in PBS (≤25 μL, 20–60 KBq) was thoroughly mixed with 0.5 mL of serum at 37 °C in a microfuge tube. The mixture was incubated at 37 °C for 5 min, and an aliquot (50 μL) was transferred to a tube for γ-counting. The remaining sample was transferred to a Centrifree Ultrafiltration device and centrifuged for 40 min at 1500 (RCF) at ambient temperature (20–24 °C). An aliquot (50 μL) of the filtrate was transferred to a tube for γ-counting. […] Following γ-counting, the protein-bound radioactivity was calculated by subtracting the counts measured in the filtrate aliquot (i.e., not protein-bound) from the counts in the corresponding serum aliquot. The data are expressed as mean ± standard deviation of fraction of radioactivity bound to protein after subtraction of non-specific binding determined in the blank.

[3] = Stability in human serum at 37 °C; format: in vitro ADME; settings: read-out: Stability in human serum, % intact
Procedure: as §1

[4] = test system: human serum protein; test: Human serum protein binding by ultrafiltration; format: in vitro ADME; settings: for Binding to human serum protein: 37 °C, ultrafiltration; for Serum albumin binding: abstract, serum species not stated
Procedure: Serum protein binding of [^64Cu]1 and [^64Cu]2 was assessed following the previously reported method. Peptides [^64Cu]1 and [^64Cu]2 were evaluated by ultrafiltration using Centrifree Ultrafiltration devices (EMD) according to the manufacturer’s recommendations. Experiments were carried out in triplicate. The Centrifree Ultrafiltration devices were pretreated with PBS containing Tween 20 (5% v/v), followed by triplicate rinses with PBS. An aliquot of each peptide [^64Cu]1 or [^64Cu]2 in PBS (≤25 μL, 20–60 KBq) was thoroughly mixed with 0.5 mL of serum at 37 °C in a microfuge tube. The mixture was incubated at 37 °C for 5 min, and an aliquot (50 μL) was transferred to a tube for γ-counting. The remaining sample was transferred to a Centrifree Ultrafiltration device and centrifuged for 40 min at 1500 (RCF) at ambient temperature (20–24 °C). An aliquot (50 μL) of the filtrate was transferred to a tube for γ-counting. For each radiolabeled peptide, a blank was run using 0.5 mL PBS/Tween 20 (5% v/v) instead of serum (n = 3) to determine non-specific binding. Following γ-counting, the protein-bound radioactivity was calculated by subtracting the counts measured in the filtrate aliquot (i.e., not protein-bound) from the counts in the corresponding serum aliquot. The data are expressed as mean ± standard deviation of fraction of radioactivity bound to protein after subtraction of non-specific binding determined in the blank.

[5] = Blocking biodistribution with pre-administered metal free peptide; format: in vivo, mice; settings: female, athymic nu/nu-nude, mouse, intravenous, total radioactivity, 4 h p.i., metal free peptide 10 min before, n = 1
Procedure: For blocking studies, the metal free peptides 1 or 2 (~220 nmol, 1.3 mg in 100 μL PBS), respectively, were injected i.v. (n = 1/peptide) as described above 10 min prior to the injection of matching radiolabeled [^64Cu]1 or [^64Cu]2 (3.7–5.55 MBq, 100 μL PBS). After a conscious 4 h uptake period, the animals were anesthetized, sacrificed, tissues rapidly collected, and analyzed as described above. Decay-corrected radioactivity concentrations are expressed as a percentage of injected dose per gram of tissue (% ID/g) (Figure S23).

[6] = BxPC-3 tumor, read-out: BxPC-3 Tumor uptake, blocked
[7] = blood, read-out: Blood uptake, blocked
[8] = bone, read-out: Bone uptake, blocked
[9] = brain, read-out: Brain uptake, blocked
[10] = gall bladder, read-out: Gall Bladder uptake, blocked
[11] = heart, read-out: Heart uptake, blocked
[12] = kidneys, read-out: Kidneys uptake, blocked
[13] = large intestines, read-out: Lg. Intestines uptake, blocked
[14] = liver, read-out: Liver uptake, blocked
[15] = lung, read-out: Lung uptake, blocked
[16] = muscle, read-out: Muscle uptake, blocked
[17] = pancreas, read-out: Pancreas uptake, blocked
[18] = skin, read-out: Skin uptake, blocked
[19] = small intestines, read-out: Sm. Intestines uptake, blocked
[20] = stomach, read-out: Stomach uptake, blocked

Compound | remaining at 1 h [1] [%] | remaining at 4 h [1] [%] | remaining at 24 h ([1]; 24 h) [%] | Binding to mouse serum protein [2] [%] | remaining at 1 h [3] [%] | remaining at 4 h [3] [%] | remaining at 24 h [3] [%] | Binding to human serum protein [4] [%] | Serum albumin binding [4] | tissue uptake at 4 h [5, 6] [%ID/g] | tissue uptake at 4 h [5, 7] [%ID/g] | tissue uptake at 4 h [5, 8] [%ID/g] | tissue uptake at 4 h [5, 9] [%ID/g] | tissue uptake at 4 h [5, 10] [%ID/g] | tissue uptake at 4 h [5, 11] [%ID/g] | tissue uptake at 4 h [5, 12] [%ID/g] | tissue uptake at 4 h [5, 13] [%ID/g] | tissue uptake at 4 h [5, 14] [%ID/g] | tissue uptake at 4 h [5, 15] [%ID/g] | tissue uptake at 4 h [5, 16] [%ID/g] | further results
Cc1cc(-c2ccc(NC(=O)CCC(=O)NCCCC[C@H](NC(=O)CN3CCN(CC(=O)O)CCN(CC(=O)O)CCN(CC(=O)O)CC3)C(=O)NCCOCCOCCOCCOCCOCCOCCOCCOCCOCCOCCOCCOCCOCCOCCOCCOCCOCCOCCOCCOCCOCCOCCOCCOCCOCCOCCOCCOCCC(=O)N[C@@H](CC(N)=O)C(=O)N[C@@H](C)C(=O)N[C@H](C(=O)N3CCC[C@H]3C(=O)N[C@@H](CC(N)=O)C(=O)N[C@@H](CC(C)C)C(=O)N[C@@H](CCCNC(=N)N)C(=O)NCC(=O)N[C@@H](CC(=O)O)C(=O)N[C@@H](CC(C)C)C(=O)N[C@@H](CCC(N)=O)C(=O)N[C@H](C(=O)N[C@@H](CC(C)C)C(=O)N[C@@H](C)C(=O)N[C@@H](CCC(N)=O)C(=O)N[C@@H](CCCNC(=N)N)C(=O)N[C@H](C(=O)N[C@@H](C)C(=O)N[C@@H](CCCNC(=N)N)C(=O)N[C@H](C(=O)NCCOCCOCCOCCOCCOCCOCCOCCOCCOCCOCCOCCOCCOCCOCCOCCOCCOCCOCCOCCOCCOCCOCCOCCOCCOCCOCCOCCOCCC(N)=O)[C@@H](C)O)C(C)C)C(C)C)C(C)C)c(C)c2)ccc1N=Nc1ccc2c(S(=O)(=O)O)cc(S(=O)(=O)O)c(N)c2c1O [[^64Cu]1, [^64Cu]Cu DOTA-EB-αvβ6-BP, metal not drawn] | 78 | 58 | 14 | 41.9 ± 1.1 | 99 | 89 | 76 | 53.4 ± 0.9 | 53–63% | 2.91 | 2.56 | 0.43 | 0.07 | 1.96 | 0.96 | 71.6 | 0.9 | 1.92 | 1.65 | 0.41 | tissue uptake at 4 h [5, 17]: 0.39 %ID/g; tissue uptake at 4 h [5, 18]: 1.12 %ID/g; tissue uptake at 4 h [5, 19]: 0.91 %ID/g; tissue uptake at 4 h ([5]; spleen, read-out: Spleen uptake, blocked): 0.85 %ID/g; tissue uptake at 4 h [5, 20]: 0.72 %ID/g
CC(C)C[C@H](NC(=O)[C@H](CC(=O)O)NC(=O)CNC(=O)[C@H](CCCNC(=N)N)NC(=O)[C@H](CC(C)C)NC(=O)[C@H](CC(N)=O)NC(=O)[C@@H]1CCCN1C(=O)[C@@H](NC(=O)[C@H](C)NC(=O)[C@H](CC(N)=O)NC(=O)CCOCCOCCOCCOCCOCCOCCOCCOCCOCCOCCOCCOCCOCCOCCOCCOCCOCCOCCOCCOCCOCCOCCOCCOCCOCCOCCOCCOCCNC(=O)[C@H](CCCCNC(=O)[C@H](CC(=O)O)NC(=O)CCCNC(=O)CCCc1ccc(I)cc1)NC(=O)CN1CCN(CC(=O)O)CCN(CC(=O)O)CCN(CC(=O)O)CC1)C(C)C)C(=O)N[C@@H](CCC(N)=O)C(=O)N[C@H](C(=O)N[C@@H](CC(C)C)C(=O)N[C@@H](C)C(=O)N[C@@H](CCC(N)=O)C(=O)N[C@@H](CCCNC(=N)N)C(=O)N[C@H](C(=O)N[C@@H](C)C(=O)N[C@@H](CCCNC(=N)N)C(=O)N[C@H](C(=O)NCCOCCOCCOCCOCCOCCOCCOCCOCCOCCOCCOCCOCCOCCOCCOCCOCCOCCOCCOCCOCCOCCOCCOCCOCCOCCOCCOCCOCCC(N)=O)[C@@H](C)O)C(C)C)C(C)C [[^64Cu]2, [^64Cu]Cu DOTA-IP-αvβ6-BP, metal not drawn] | 92 | 83 | 48 | 44.0 ± 0.1 | 99 | 93 | 90 | 63.3 ± 1.5 | 42–44% | 2.89 | 3.98 | 0.5 | 0.09 | 1.64 | 1.31 | 16.8 | 1.26 | 2.04 | 2.08 | 0.5 | Fold higher stability than [64Cu]1 in mouse serum ([1]; 24 h): 3.4 fold; tissue uptake at 4 h [5, 17]: 0.76 %ID/g; tissue uptake at 4 h [5, 18]: 1.26 %ID/g; tissue uptake at 4 h [5, 19]: 1.18 %ID/g; tissue uptake at 4 h [5, 20]: 1.2 %ID/g

— publication PMC9025560, “A Comparison of Evans Blue and 4-(p-Iodophenyl)butyryl Albumin Binding Moieties on an Integrin αvβ6 Binding Peptide” (Pharmaceutics, 2022)
